Results reported in article PMC12516390 (ACS Medicinal Chemistry Letters, 2025).
Where two headings read alike, the source gives them in different places.

Test system: SARS-CoV-2 (Omicron variant)
Assay: microbe, parasite or virus in culture
Type: cell-based
[1] = Severe acute respiratory syndrome coronavirus 2, read-out: EC50 (μM) SARS-CoV-2/VeroE6-GFP
[2] = Severe acute respiratory syndrome coronavirus 2, read-out: EC50 (μM) SARS-CoV-2 / VeroE6-GFP
[3] = Severe acute respiratory syndrome coronavirus 2, Vero C1008, read-out: EC50 / activity in SARS-CoV-2 VeroE6 antiviral assay

SMILES | EC50 [1] [µM] | EC50 [2] [µM] | EC50 [3] [µM]
CC(C)C[C@H](NC(=O)c1ccc(-c2ccc3c(cnn3C)c2)cc1)C(=O)N[C@H](C#N)C[C@@H]1CCNC1=O [6l] | 11.1 ± 0.3 |  | 
COc1ccc(-c2ccc(C(=O)N[C@@H](CC3CCCCC3)C(=O)N[C@H](C#N)C[C@@H]3CCNC3=O)c(Cl)c2)cc1 [23c] | 2.49 ± 0.2 |  | 
COc1ccc(-c2ccc(C(=O)N[C@@H](CC(C)C)C(=O)N[C@H](C#N)C[C@@H]3CCNC3=O)c(C)c2)cc1 [18k] |  | 5.16 | 
COc1cccc(-c2ccc(C(=O)N3C[C@H]4[C@@H]([C@H]3C(=O)N[C@H](C#N)C[C@@H]3CCNC3=O)C4(C)C)c(Cl)c2)c1 [22f] | 0.331 ± 0.05 |  | 0.2 to 0.3
COc1cccc(-c2ccc(C(=O)N[C@@H](CC(C)C)C(=O)N[C@H](C#N)C[C@@H]3CCNC3=O)cc2)c1 [6e] | 12.5 ± 0.5 |  | 
COc1cccc(-c2ccc(C(=O)N[C@@H](CC3CCCCC3)C(=O)N[C@H](C#N)C[C@@H]3CCNC3=O)c(Cl)c2)c1 [23d] | 8.64 ± 0.3 |  | 
CC(C)C[C@H](NC(=O)c1ccc(-c2cccc3nn(C)cc23)cc1)C(=O)N[C@H](C#N)C[C@@H]1CCNC1=O [6j] | 12.1 ± 0.5 |  | 
CC(C)(C)[C@H](NC(=O)C(F)(F)F)C(=O)N1C[C@H]2[C@@H]([C@H]1C(=O)N[C@H](C#N)C[C@@H]1CCNC1=O)C2(C)C [nirmatrelvir, reference compound] | 0.101 ± 0.2 |  | 0.1 to 0.18
CC(C)C[C@H](NC(=O)c1ccc(-c2cccc3nn(C)cc23)cc1F)C(=O)N[C@H](C#N)C[C@@H]1CCNC1=O [18a] |  | 4.18 | 
CC(C)C[C@H](NC(=O)c1ccc(-c2ccc3cnn(C)c3c2)cc1Cl)C(=O)N[C@H](C#N)C[C@@H]1CCNC1=O [18q] |  | 3.02 | 
COc1ccc(-c2ccc(C(=O)N[C@@H](CC(C)C)C(=O)N[C@H](C#N)C[C@@H]3CCNC3=O)c(C(F)(F)F)c2)cc1 [18m] |  | 2.56 | 
COc1ccc(-c2ccc(C(=O)N[C@@H](CC(C)C)C(=O)N[C@H](C#N)C[C@@H]3CCNC3=O)cc2)cc1OC [6f] | 11.9 ± 0.1 |  | 
COc1ccc(-c2ccc(C(=O)N[C@@H](CC(C)C)C(=O)N[C@H](C#N)C[C@@H]3CCNC3=O)c(Cl)c2)cc1 [18r] |  | 1.57 | 
COc1ccc(-c2ccc(C(=O)N3C[C@H]4[C@@H]([C@H]3C(=O)N[C@H](C#N)C[C@@H]3CCNC3=O)C4(C)C)c(Cl)c2)cc1 [22e] | 0.289 ± 0.05 |  | 0.2 to 0.3
COc1ccc(-c2ccc(C(=O)N[C@@H](CC(C)C)C(=O)N[C@H](C#N)C[C@@H]3CCNC3=O)c(F)c2)cc1 [18b] |  | 5.67 | 
COc1cccc(-c2ccc(C(=O)N[C@@H](CC(C)C)C(=O)N[C@H](C#N)C[C@@H]3CCNC3=O)c(Cl)c2)c1 [18n] | 2.18 ± 0.2 | 2.18 | 
CC(C)C[C@H](NC(=O)c1ccc(-c2ccc3c(cnn3C)c2)cc1F)C(=O)N[C@H](C#N)C[C@@H]1CCNC1=O [18c] |  | 6.34 | 
CC(C)C[C@H](NC(=O)c1ccc(-c2ccc3c(cnn3C)c2)cc1Cl)C(=O)N[C@H](C#N)C[C@@H]1CCNC1=O [18o] |  | 4.25 | 
CC(C)C[C@H](NC(=O)c1ccc(-c2cccc3nn(C)cc23)cc1Cl)C(=O)N[C@H](C#N)C[C@@H]1CCNC1=O [18p] |  | 11.8 | 
